Results: patent US20040005537A1, “Method of identifying toxic agents using differential gene expression” (priority 2000, published 2004)

Tests used:
[1] = grouping used to generate the distinguishing gene profiles; cited from earlier work
rat heart tissue = experiment: GENECALLING differential gene expression analysis after dosing of serotonin modulating agents; format: in vivo, Sprague Dawley rats
Protocol: Control animals received sterile water or canola oil. The animals were sacrificed 24 hours following the last dose. Liver tissue was dissected from the animals, and total RNA was recovered from the dissected tissue. cDNA was prepared and the resulting samples were processed through using GENECALLING™ differential expression analysis as described in U.S. Pat. No. 5,871,697 and in Shimkets et al., Nature Biotechnology 17:798-803 (1999). The contents of these patents and publications are incorporated herein by reference in their entirety.
Thousands of gene fragments were initially found to be differentially expressed in rat heart tissue in response to serotonin modulating agents in. Genes fragments whose expression levels were modulated greater than ±1.5-fold were selected for further analysis.
Column 6 of Table 1, entitled “Function”, lists the type of classification assigned for the protein, based on its function. The 210 single nucleic acid sequences identified herein, are referred to herein as CARDIOTOX 1-210.

For `CN1C[C@H](C(=O)N[C@]2(C)O[C@@]3(O)[C@@H]4CCCN4C(=O)[C@H](Cc4ccccc4)N3C2=O)C[C@@H]2c3cccc4[nH]cc(c34)C[C@H]21` [dihydroergotamine], the “classification as cardiotoxic or noncardiotoxic serotonin modulating agent” value [1] is listed as “cardiotoxic”, the “Effects on Transcription Level: Novel gene fragment, 524 bp, 86% SI to mouse F-box protein FBX6b [AF176526]” value (rat heart tissue; CARDIOTOX 1) is listed as “+1.3 fold” and the “Effects on Transcription Level: Novel gene fragment, 306 bp, 91% SI to mouse low density lipoprotein receptor related protein 4 [AB013874]” value (rat heart tissue; CARDIOTOX 2) is listed as −1.4 fold. For the same molecule, the “Effects on Transcription Level: Novel gene fragment, 540 bp, 97% SI to mouse skeletal muscle alpha-actin [X03766]” value (rat heart tissue; CARDIOTOX 3) was “+1.2 fold”, the “Effects on Transcription Level: Novel gene fragment, 80 bp” value (rat heart tissue; CARDIOTOX 4) was −1.4 fold and the “Effects on Transcription Level: Novel gene fragment, 957 bp, 99% SI to kidney injury associated moleculer HW036 [V80591]” value (rat heart tissue; CARDIOTOX 5) was −1.4 fold. The “Effects on Transcription Level: Novel gene fragment, 282 bp, 85% SI to human KIAA1515 protein [AB040948]” value (rat heart tissue; CARDIOTOX 6) was −1.2 fold, the “Effects on Transcription Level: Novel gene fragment, 405 bp, 88% SI to human 2-oxoglutarate dehydrogenase [D10523]” value (rat heart tissue; CARDIOTOX 7) was “+1.3 fold” and the “Effects on Transcription Level: UCP2” value (rat heart tissue; CARDIOTOX 8, GenBank AB010743) was “+1.0 fold”. For the same molecule, the “Effects on Transcription Level: Plasma membrane Ca2 + ATPase-isoform 1” value (rat heart tissue; CARDIOTOX 9, GenBank J03753) was −1.4 fold, the “Effects on Transcription Level: Novel gene fragment, 242 bp, 97% SI to mouse HSP86 heat-shock protein [X16857]” value (rat heart tissue; CARDIOTOX 10) was “+1.0 fold” and the “Effects on Transcription Level: Novel gene fragment, 280 bp, 65% SI to human TRF1-interacting, ankyrin-related ADP-ribose polymerase [AF082556]” value (rat heart tissue; CARDIOTOX 11) was “+1.3 fold”. The “Effects on Transcription Level: Novel gene fragment, 348 bp, 88% SI to mouse Sec61 protein complex gamma subunit [U11027]” value (rat heart tissue; CARDIOTOX 12) was “+1.4 fold”, the “Effects on Transcription Level: Novel gene fragment 553 bp, 93% SI to mouse Sid329 [AB024984]” value (rat heart tissue; CARDIOTOX 13) was “+1.2 fold” and the “Effects on Transcription Level: Kruppel-like transcription factor” value (rat heart tissue; CARDIOTOX 14, GenBank AB020759) was “+1.2 fold”. The “Effects on Transcription Level: Ribosomal protein L3” value (rat heart tissue; CARDIOTOX 15, GenBank X62166) was “+1.4 fold”, the “Effects on Transcription Level: Glucose-regulated protein (GRP) 75” value (rat heart tissue; CARDIOTOX 16, GenBank S78556) was “+1.2 fold” and the “Effects on Transcription Level: Immunoglobulin heavy chain binding protein (BiP)” value (rat heart tissue; CARDIOTOX 17, GenBank M14050) was “+1.2 fold”. For the same molecule, the “Effects on Transcription Level: Membrane-spannining proteoglycan NG2” value (rat heart tissue; CARDIOTOX 18, GenBank X56541) was −1.4 fold, the “Effects on Transcription Level: Novel gene fragment, 1294 bp, 96% SI to mouse Sui 1 (elF) homolog [AF129888]” value (rat heart tissue; CARDIOTOX 19) was “+1.1 fold” and the “Effects on Transcription Level: Novel gene fragment, 723 bp, 85% SI to human translation initiation factor elF3 p40 subunit [U54559]” value (rat heart tissue; CARDIOTOX 20) was “+1.2 fold”. The “Effects on Transcription Level: Novel gene fragment, 1324 bp, 76% SI to human flavoprotein subunit of complex II [D30648]” value (rat heart tissue; CARDIOTOX 21) was “+1.3 fold”, the “Effects on Transcription Level: Novel gene fragment, 852 bp, 81% SI to human vacuolar proton-ATPase subunit M9.2 [Y15286]” value (rat heart tissue; CARDIOTOX 22) was “+1.4 fold” and the “Effects on Transcription Level: Novel gene fragment, 178 bp, 91% SI to mouse myosin light chain-2 isoform MLC-2a [S70785]” value (rat heart tissue; CARDIOTOX 23) was “+1.2 fold”. The “Effects on Transcription Level: Novel gene fragment, 167 bp, 90% SI to mouse Rab20 [X80332]” value (rat heart tissue; CARDIOTOX 24) was “+1.2 fold”, the “Effects on Transcription Level: Novel gene fragment, 1070 bp, 80% SI to human muscle-specific protein [AF249873]” value (rat heart tissue; CARDIOTOX 25) was “+1.2 fold” and the “Effects on Transcription Level: Novel gene fragment, 1143 bp, 82% SI to human sarcoma amplified sequence (SAS) [U01160]” value (rat heart tissue; CARDIOTOX 26) was “+1.4 fold”. The “Effects on Transcription Level: Novel gene fragment, 74 bp,75% SI to human secreted protein [X30160] (from patent database)/[X97578] (from patent database)/potential cytokine)” value (rat heart tissue; CARDIOTOX 27) was “+1.4 fold”, the “Effects on Transcription Level: Novel gene fragment, 408 bp, 90% SI to human CGI-07 protein [AF132941]” value (rat heart tissue; CARDIOTOX 28) was “+1.2 fold” and the “Effects on Transcription Level: Novel gene fragment, 618 bp, 95% SI to rat progression related cDNA, ZNPE-120 3′ end partial sequence [patent database X90805]” value (rat heart tissue; CARDIOTOX 29) was “+1.0 fold”. The “Effects on Transcription Level: Novel gene fragment, 717 bp” value (rat heart tissue; CARDIOTOX 30) was “+1.2 fold”, the “Effects on Transcription Level: Novel gene fragment, 546 bp” value (rat heart tissue; CARDIOTOX 31) was −1.0 fold and the “Effects on Transcription Level: Novel gene fragment, 920 bp, 91% SI to human HSPC061 [AF161546]” value (rat heart tissue; CARDIOTOX 32) was “+1.3 fold”. For the same molecule, the “Effects on Transcription Level: Novel gene fragment, 203 bp, 92% SI to rabbit sarcoplasmic reticulum glycoprotein [J04480]” value (rat heart tissue; CARDIOTOX 33) was −1.1 fold, the “Effects on Transcription Level: Novel gene fragment, 178 bp, 68% SI to mouse IgG receptor (beta-Fc-gamma-RII)[M63159]” value (rat heart tissue; CARDIOTOX 34) was “+1.2 fold” and the “Effects on Transcription Level: Ribosomal protein L6” value (rat heart tissue; CARDIOTOX 35, GenBank X87107) was “+1.4 fold”. The “Effects on Transcription Level: CAP2 protein (adenylyl cyclase-associated protein 2)” value (rat heart tissue; CARDIOTOX 36, GenBank U31935) was “+1.2 fold”, the “Effects on Transcription Level: Alpha-platelet-derived growth factor receptor” value (rat heart tissue; CARDIOTOX 37, GenBank M63837) was −1.0 fold and the “Effects on Transcription Level: Rab GD1 alpha protein” value (rat heart tissue; CARDIOTOX 38, GenBank X74402) was −1.1 fold. For the same molecule, the “Effects on Transcription Level: PKC-zeta-interacting protein” value (rat heart tissue; CARDIOTOX 39, GenBank Y08355) was “+1.2 fold”, the “Effects on Transcription Level: ERK or MAP kinase” value (rat heart tissue; CARDIOTOX 40, GenBank X65198) was “+1.4 fold” and the “Effects on Transcription Level: Peroxisomal multifunctional enzyme type II” value (rat heart tissue; CARDIOTOX 41, GenBank U37486) was “+1.2 fold”. The “Effects on Transcription Level: HBP23 (heme-binding protein 23 kDa)” value (rat heart tissue; CARDIOTOX 42, GenBank D30035) was “+1.3 fold”, the “Effects on Transcription Level: Caveolae-associated protein” value (rat heart tissue; CARDIOTOX 43, GenBank U90725) was “+1.3 fold” and the “Effects on Transcription Level: Prenylated rab acceptor 1 (PRA1)” value (rat heart tissue; CARDIOTOX 44, GenBank AF025506) was “+1.0 fold”. For the same molecule, the “Effects on Transcription Level: Novel gene fragment, 337 bp, 88% SI to rabbit cardiac ryanodine receptor (RyR-2)[U50465]” value (rat heart tissue; CARDIOTOX 45) was −2.5 fold, the “Effects on Transcription Level: Novel gene fragment, 81 bp, 85% SI to human titin [X90568]” value (rat heart tissue; CARDIOTOX 46) was −2.8 fold and the “Effects on Transcription Level: Novel gene fragment, 428 bp, 86% SI to human titin [X90568]” value (rat heart tissue; CARDIOTOX 47) was −1.7 fold. The “Effects on Transcription Level: Novel gene fragment, 374 bp, 88% SI to human titin [X90568]” value (rat heart tissue; CARDIOTOX 48) was −5.5 fold, the “Effects on Transcription Level: Novel gene fragment, 428 bp, 85% SI to human titin [90568]” value (rat heart tissue; CARDIOTOX 49) was −3.8 fold and the “Effects on Transcription Level: Novel gene fragment, 1216 bp, 93% SI to mouse mircotubule-associated protein (MAP) 1B protein [AF115776]” value (rat heart tissue; CARDIOTOX 50) was −1.5 fold. The “Effects on Transcription Level: Novel gene fragment, 1115 bp, 83% SI to human KIAA0549 protein [AB011121]” value (rat heart tissue; CARDIOTOX 51) was −1.5 fold, the “Effects on Transcription Level: Novel gene fragment, 153 bp” value (rat heart tissue; CARDIOTOX 52) was −1.7 fold and the “Effects on Transcription Level: Novel gene fragment, 89 bp, 93% SI to human putative glialblastoma cell differentiation-related protein (GBDR1) [AF068195]” value (rat heart tissue; CARDIOTOX 53) was “+1.5 fold”. The “Effects on Transcription Level: Rho-associated kinase beta” value (rat heart tissue; CARDIOTOX 54, GenBank U61266) was −2.6 fold, the “Effects on Transcription Level: Adenylate kinase 3” value (rat heart tissue; CARDIOTOX 55, GenBank D13062) was “+1.5 fold” and the “Effects on Transcription Level: Amyloid beta-peptide binding protein” value (rat heart tissue; CARDIOTOX 56, GenBank AF049878) was “+1.7 fold”. For the same molecule, the “Effects on Transcription Level: Mitochondrial adenine nuleotide translocator” value (rat heart tissue; CARDIOTOX 57, GenBank D12771) was “+1.8 fold”, the “Effects on Transcription Level: Novel gene fragment, 710 bp, 94% SI to mouse chromatin structural protein homolog Supt5 hp (Supt5 h)[U88539]” value (rat heart tissue; CARDIOTOX 58) was “+2.8 fold” and the “Effects on Transcription Level: Novel gene fragment, 186 bp, 66% SI to human N-acetylglucosaminyltransferase 1 (GlcNAc-TI)[M55621]” value (rat heart tissue; CARDIOTOX 60) was −1.5 fold. For the same molecule, the “Effects on Transcription Level: Novel gene fragment, 238 bp, 95% SI to mouse MAP kinase-activated protein kinase 2 [X76850]” value (rat heart tissue; CARDIOTOX 61) was −1.5 fold, the “Effects on Transcription Level: Novel gene fragment, 173 bp, 70% SI to G protein-coupled receptor kinase GRK4 [X97568]” value (rat heart tissue; CARDIOTOX 62) was −7.2 fold and the “Effects on Transcription Level: Novel gene fragment, 133 bp, 77% SI to human apoptosis related protein hSARP3 [patent database: V19114]” value (rat heart tissue; CARDIOTOX 63) was −2.5 fold. The “Effects on Transcription Level: Novel gene fragment, 477 bp, 98% SI to peroxisomal phytanoyl-CoA hydroxylase (PHYH) [AF121345]” value (rat heart tissue; CARDIOTOX 64) was “+8.0 fold”, the “Effects on Transcription Level: Novel gene fragment, 413 bp, 95% SI to mouse dihydrolipoamide dehydrogenase (Dld) [U73445]” value (rat heart tissue; CARDIOTOX 65) was “+2.2 fold” and the “Effects on Transcription Level: Novel gene fragment, 726 bp, 76% SI to human succinate dehydrogenase flavoprotein subunit (SDH) [L21936]” value (rat heart tissue; CARDIOTOX 66) was −3.6 fold. The “Effects on Transcription Level: Novel gene fragment, 440 bp, 92% SI to mouse cytochrome c oxidase Vllc [X52940]” value (rat heart tissue; CARDIOTOX 67) was “+4.1 fold”, the “Effects on Transcription Level: Novel gene fragment, 276 bp, 80% SI to human titin [X90568]” value (rat heart tissue; CARDIOTOX 68) was −6.5 fold and the “Effects on Transcription Level: Novel gene fragment, 149 bp, 70% SI to human titin [X90568]” value (rat heart tissue; CARDIOTOX 69) was “+8.0 fold”.
